Tests used:
pentosidine = experiment: Pentosidine formation inhibiting effect in plasma of hemodialysis patients; format: biochemical, human; details: plasma from hemodialysis patients, final concentration 0.8, 2.0, 5.0 mM, 37° C. for one week; compared to pyridoxamine as positive control
Procedure: Fresh heparinized plasma samples were obtained after informed consent from hemodialysis patients prior to the dialysis session, and filtrated and sterilized. To the plasma (450 μL), there was added the solution of TM-2002 in dimethylsurphoxide (50 μL) (final concentration: 0.8, 2.0, 5.0 mM) incubated at 37° C. for one week. Then, the amount of pentosidine was measured.
Measurement of the amount of pentosidine was made as follows: to each incubated sample (50 μL) was added an equal volume of 10% trichloroacetic acid, followed by centrifugation at 5000 g for 5 minutes; after removal of the supernatant, the pellet was washed by 5% trichloroacetic acid (300 μL); the pellet was dried under reduced pressure and then subjected to hydrolysis in 6N HCl solution (100 μL) at 110° C. under nitrogen atmosphere for 16 hours; to the hydrolysate, 5N NaOH (100 μL) and 0.5 M phosphate buffer (pH 7.4) (200 μL) were added, followed by filtration through a porefilter with a pore size of 0.5 μm and dilution with PBS. The concentration of free pentosidine was determined by reversed-phase HPLC using a fluorescence detector (Miyata, T. et al.: Proc. Natl. Acad. Sci. USA, Vol. 93, p. 2353-2358, 1996). The effluent was monitored at 335/385 nm of excitation/emission wavelength. Synthetic pentosidine was used as the standard. The detection limit of pentosidine was 0.1 pmol/mg protein. […]

[1] = Solubility test at different pH; format: physicochemical; details: for condition of the solution: 10 mg per 1 ml purified water
Procedure: TM-2002 was added in purified water to be 10 mg per 1 ml and added hydrochloride to adjust to pH 2.0 and solved. Then, this solution was adjusted to pH 7.0, 8.0 and 2,0 (unadjust) by 1N sodium hydrate to prepare 3 solutions. These solutions were put on warming, dark cold place and after 24 hours, conditions of the solutions were observed. […] As the result, stable TM-2002 injectable formulation in its solubility may be prepared by keeping acidic condition using inorganic acid such as hydrochloride, sulfuric acid, or various organic acid, or by using TM-2002 hydrochloride or sulfate as material which is made from said acids.

ORP150 = experiment: ER stress inducing molecule expression in RIN-5F cells, western blot, ORP150; format: cell-based, rat; details: TM-2002 200 μM, 50 μM and tunicamycin co-added
Procedure: (§1) Rat pancreatic β cell line (RIN-5F) was seeded in 6 well culture plate to 1.0×10^5 cells/well, and after 24 hours, TM-2002 in DMSO (200 mM, 50 mM) were added to be final concentration 200 μM, 50 μM. After another 1 hour, 0.2 μl of tunicamycin (Sigma) in methanol(1 mg/ml) was added. After culturing 8 hours, the cells were washed 2 ml of PBS(+) twice, and the cells were dissolved in 100 μl of lysate (50 mM Tris-HCl (pH 7.5), 150 mM NaCl, 100 mM NaF, 100 mM sodium phosphate (pH 7.4), 2 mM Na3VO4, 0.1% protease inhibitor cocktail (Sigma), 1% Triton X-100). To remove the insoluble fraction of this lysate, centrifuged at 12,000×g for 10 minutes and obtained the supernatant to give cell extract. The extract was quantified its protein concentration using DC protein assay kit (Bio Rad), and each samples (1 μg) was electrophoresed by SDS-PAGE and transferred to PVDF membrane. The membrane was blocked with 5% skimmed milk/0.1% Tween20-TBS for 1 hour at room temperature, and reacted with anti-ORP150 antibody in 5% skimmed milk/0.1% Tween20-TBS (2000 folds: specific antibody), anti-GRP78 antibody (Santa Cruz) in 5% skimmed milk/0.1% Tween20-TBS (100 folds) and anti-actin antibody (Sigma) in 5% skimmed milk/0.1% Tween20-TBS (200 folds) for 2 hours. […] The detected signal was analyzed by Lane analyzer (ATTO) and calculated the signal strength. […]

GRP78 = experiment: ER stress inducing molecule expression in RIN-5F cells, western blot, GRP78; format: cell-based, rat; details: TM-2002 200 μM, 50 μM and tunicamycin co-added
Procedure: as §1

[2] = tested on: Thy-1 nephritis model rat; experiment: Renal protective effect on Thy-1 nephritis model rat; format: in vivo; details: 50 mg/kg twice daily by sonde, 5 days
Procedure: 1.2 mg/kg of OX-7, anti Thy-1 antibody, was administered to wistar rat (male, body weight 150 g, 6 weeks aged) in caudal vein to prepare typical glomerulonephritis model with mesangial nephritis. After the administration of anti Thy-1 antibody, test compound (TM-2002, 50 mg/kg body weight, twice a daily) was suspended in 0.5% carboxymethylcellulose, was coercively administered 5 days continuously using sonde, on sixth day sampled, kidney was obtained, and analysed pathologically (count the number of glomerular cells). In particular, cells were stained by PAS according to conventional method, the stained image was captured by 3CCD camera (Olympus), and then analyzed using softwares, Image Graver PCI (FUJI shashin film) and Mac Aspect (Mitani kabushiki kaisha). Also, biochemical analysis of blood and urine was carried out (contract clinical analysis organization: SRL).

condition of the solution ([1]; pH 2.0, after 24 hours): kept clear solution
condition of the solution ([1]; pH 7.0, after 24 hours): observed precipitate
condition of the solution ([1]; pH 8.0, after 24 hours): observed precipitate
change of color of the solution ([1]; pH 7.0 and pH 8.0 solutions, after 24 hours): the change of color was shown
SMILES: Cc1ncc2c(c1O)C(c1c(C)nn(-c3ccccc3)c1O)OC2 (stereo not shown) [compound 68, 1-(5-hydroxy-3-methyl-1-phenyl-1H-pyrazol-4-yl)-6-methyl-1,3-dihydro-furo[3,4-c]pyridin-7-ol]
pentosidine formation inhibiting effect (pentosidine): inhibits significantly pentosidine formation compared to pyridoxamine
hyperexpression of ORP150 (ORP150): suppressed
hyperexpression of GRP78 (GRP78): suppressed
BUN value ([2]; sampled on sixth day): improved
urinary protein ([2]; sampled on sixth day): improved
number of glomerular cells ([2]; p<0.0001): significantly suppressed
